Data on 18 molecules can be found in paper PMC6100008, “Fingerprint-Based Machine Learning Approach to Identify Potent and Selective 5-HT2BR Ligands” (Molecules : A Journal of Synthetic Chemistry and Natural …, 2018).

SMILES strings stand for the structures. Like-named read-outs stand apart in the source and are kept apart here.

For one assay, the target named is 5-HT1B. Particulars: Figure 1; ref 21 (compound 1), ChEMBL (compounds 2, 3); cited from earlier work.
Assay [1] deals with 5-HT2B. Also noted: method as in earlier work. Particulars: Figure 1; ref 21 (1), ChEMBL (2, 3), ref 24 (5), ref 26 (7); cited from earlier work.
The next assay addresses T1, human 5-HT1B receptor (Homo sapiens, UniProt P28222).
T1 construct: expressed in transfected cells; host or cells: HeLa (Hela-5-HT1B cell line, Lot A001/14-11-2011)
Briefly: Competition binding in human 5-HT1B receptor ([3H]-GR125743, Hela-5-HT1B membranes). Particulars: for inhibition at 10 µM: 10 µM compound, mean ± SD of three independent assays with duplicate measurements, read-out: 5-HT1B (%) percentage of inhibition; for Ki: measured if inhibition at 10 µM exceeded 50%, mean ± SD of three assays.

The target in another assay is human 5-HT2B receptor (Homo sapiens, UniProt P41595). The experiment in a line: Competition binding in human 5-HT2B receptor ([3H]-LSD, CHO-5-HT2B membranes). Particulars: for inhibition at 10 µM: read-out: 5-HT2B (%) percentage of inhibition; for 5-HT2BR affinity range in words: conclusions.
Sequence of human 5-HT2B receptor (P41595 whole entry): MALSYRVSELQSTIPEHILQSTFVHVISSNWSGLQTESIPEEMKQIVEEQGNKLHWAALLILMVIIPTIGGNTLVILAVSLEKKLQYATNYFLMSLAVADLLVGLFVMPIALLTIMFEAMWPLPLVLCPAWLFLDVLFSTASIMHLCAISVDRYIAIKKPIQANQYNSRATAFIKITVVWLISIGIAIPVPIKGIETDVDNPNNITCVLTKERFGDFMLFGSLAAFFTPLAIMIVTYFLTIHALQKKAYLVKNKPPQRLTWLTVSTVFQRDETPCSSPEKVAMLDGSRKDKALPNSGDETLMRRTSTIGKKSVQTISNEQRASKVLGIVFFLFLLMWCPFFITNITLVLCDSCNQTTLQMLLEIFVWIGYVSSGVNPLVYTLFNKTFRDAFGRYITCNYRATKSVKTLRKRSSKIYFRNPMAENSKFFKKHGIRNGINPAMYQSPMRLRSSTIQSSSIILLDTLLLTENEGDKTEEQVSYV
The target of another assay is T2, human serotonin 5-HT1AR (Homo sapiens, UniProt P08908).
T2 construct: expressed in transfected cells
T2 sequence (P08908 1-422): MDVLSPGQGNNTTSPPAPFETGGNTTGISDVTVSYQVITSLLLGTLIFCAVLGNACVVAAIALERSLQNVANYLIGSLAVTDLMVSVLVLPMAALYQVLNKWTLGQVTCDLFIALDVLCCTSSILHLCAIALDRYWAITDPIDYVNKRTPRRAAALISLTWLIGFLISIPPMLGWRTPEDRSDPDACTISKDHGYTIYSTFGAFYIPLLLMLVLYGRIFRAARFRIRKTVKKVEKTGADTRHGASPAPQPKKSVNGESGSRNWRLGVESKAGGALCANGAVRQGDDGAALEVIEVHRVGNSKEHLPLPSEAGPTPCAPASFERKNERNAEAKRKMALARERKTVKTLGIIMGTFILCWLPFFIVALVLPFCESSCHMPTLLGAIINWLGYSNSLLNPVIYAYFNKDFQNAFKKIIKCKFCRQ
Briefly: Competition binding in human 5-HT1A receptor ([3H]-8-OH-DPAT, HEK293 membranes). Particulars: 5-HT panel screening; mean ± SD.

The target in assay [2] is T3, human serotonin 5-HT2A receptor (Homo sapiens, UniProt P28223).
T3 construct: expressed in transfected cells
T3 sequence (P28223 whole entry): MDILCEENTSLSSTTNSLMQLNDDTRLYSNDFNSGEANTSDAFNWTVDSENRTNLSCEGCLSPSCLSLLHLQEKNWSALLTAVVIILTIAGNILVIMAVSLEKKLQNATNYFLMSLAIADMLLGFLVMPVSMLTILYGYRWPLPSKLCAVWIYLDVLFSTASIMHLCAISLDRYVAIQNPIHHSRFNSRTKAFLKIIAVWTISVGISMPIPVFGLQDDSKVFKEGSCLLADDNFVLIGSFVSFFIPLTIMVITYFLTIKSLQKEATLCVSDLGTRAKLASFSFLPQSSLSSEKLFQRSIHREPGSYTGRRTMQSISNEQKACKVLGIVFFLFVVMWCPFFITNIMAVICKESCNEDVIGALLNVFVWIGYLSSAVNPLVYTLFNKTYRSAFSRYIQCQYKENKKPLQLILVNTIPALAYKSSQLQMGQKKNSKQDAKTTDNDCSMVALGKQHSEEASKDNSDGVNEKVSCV
Briefly: Competition binding in human 5-HT2A receptor ([3H]-Ketanserin, HEK293 membranes). Particulars: 5-HT panel screening; mean ± SD.

The target of assay [3] is T4, human serotonin 5-HT6 receptor (Homo sapiens, UniProt P50406).
T4 construct: expressed in transfected cells
T4 sequence (P50406 whole entry): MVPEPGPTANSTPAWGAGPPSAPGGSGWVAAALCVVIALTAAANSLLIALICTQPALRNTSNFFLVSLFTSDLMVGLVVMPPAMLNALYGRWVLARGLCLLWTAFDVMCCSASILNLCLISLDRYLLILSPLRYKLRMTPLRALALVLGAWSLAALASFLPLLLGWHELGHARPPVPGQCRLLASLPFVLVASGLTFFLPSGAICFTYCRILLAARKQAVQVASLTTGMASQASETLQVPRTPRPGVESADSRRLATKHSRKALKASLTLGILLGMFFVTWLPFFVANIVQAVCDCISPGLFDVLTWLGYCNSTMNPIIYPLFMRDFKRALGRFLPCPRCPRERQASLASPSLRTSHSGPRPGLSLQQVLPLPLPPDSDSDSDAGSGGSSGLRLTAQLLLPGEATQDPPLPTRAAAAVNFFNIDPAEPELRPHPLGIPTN
The experiment in a line: Competition binding in human 5-HT6 receptor ([3H]-LSD, HEK293 membranes). Particulars: 5-HT panel screening; mean ± SD.

Assay [4] concerns the target T5, human serotonin 5-HT7b receptor (Homo sapiens, UniProt P34969).
T5 construct: expressed in transfected cells
The experiment in a line: Competition binding in human 5-HT7 receptor ([3H]-5-CT, HEK293 membranes). Particulars: 5-HT panel screening; mean ± SD.

Assay [5] deals with 5-HT2B. Particulars: cited from earlier work.
Assay [6] has as its system 5-HT2B. Also noted: method as in PMID 8709108. Particulars: Figure 1; cited from earlier work.

T1 sequence (P28222 whole entry): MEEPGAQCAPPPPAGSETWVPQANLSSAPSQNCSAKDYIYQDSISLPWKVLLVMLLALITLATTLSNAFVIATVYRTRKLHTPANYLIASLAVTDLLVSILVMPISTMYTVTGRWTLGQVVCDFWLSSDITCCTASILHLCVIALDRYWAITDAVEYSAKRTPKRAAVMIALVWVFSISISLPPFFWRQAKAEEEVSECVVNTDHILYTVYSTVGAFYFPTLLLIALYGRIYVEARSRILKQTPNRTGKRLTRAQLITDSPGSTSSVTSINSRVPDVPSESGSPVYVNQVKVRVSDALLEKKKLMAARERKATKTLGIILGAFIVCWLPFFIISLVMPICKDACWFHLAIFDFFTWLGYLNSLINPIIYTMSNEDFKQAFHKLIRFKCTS
T5 sequence (P34969 1-432): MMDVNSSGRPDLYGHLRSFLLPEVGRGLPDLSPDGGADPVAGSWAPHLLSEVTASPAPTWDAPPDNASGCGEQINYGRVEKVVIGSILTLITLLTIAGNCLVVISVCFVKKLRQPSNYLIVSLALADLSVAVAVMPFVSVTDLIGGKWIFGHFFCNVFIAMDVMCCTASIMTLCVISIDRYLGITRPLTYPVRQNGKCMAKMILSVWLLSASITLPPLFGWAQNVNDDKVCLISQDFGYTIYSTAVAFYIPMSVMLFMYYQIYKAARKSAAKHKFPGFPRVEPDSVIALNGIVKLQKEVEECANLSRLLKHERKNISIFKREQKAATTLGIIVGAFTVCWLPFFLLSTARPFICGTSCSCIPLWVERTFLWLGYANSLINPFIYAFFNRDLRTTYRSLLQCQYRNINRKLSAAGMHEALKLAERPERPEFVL

For the molecule `CCOC(=O)c1cccc(NC2=NC(N)=NC3(CCCCC3)N2)c1` [Compound 1], the “pKi (5-HT1B)” value at 5-HT1B was above 5. In addition, at 5-HT2B [1], the “pKi (5-HT2B)” value is recorded as 8.14.
The term inhibition denotes the share of the control response that was lost under treatment. As to `CCc1ccc(NC(=O)c2ccc(-c3noc(C4CCN(C(=O)c5ccc(F)cc5)CC4)n3)cc2)cc1` [Compound 16], the inhibition at 10 µM amounted to 1 ± 1% on human 5-HT1B receptor and 24 ± 4% on human 5-HT2B receptor.
In the case of `CCCCN1CCC(COC(=O)c2cc(F)c(N)c3c2OCCO3)CC1` [Compound 3], the “pKi (5-HT1B)” value at 5-HT1B is above 5. The “pKi (5-HT2B)” value on 5-HT2B [1] is reported as 6.78.
For the molecule `COc1cccc(-c2n[nH]cc2C(=O)N2CCCC(c3cc(O)ncn3)C2)c1` (centres unmarked) [Compound 12], the inhibition at 10 µM is 7 ± 1% at human 5-HT1B receptor and 36 ± 4% at human 5-HT2B receptor.
With `COc1cc(N)c(Cl)cc1C(=O)NC1CCN(CCCOc2ccc(F)cc2)CC1OC` (centres unmarked) [Compound 2], the “pKi (5-HT1B)” value at 5-HT1B is above 5.3.
As for `Cn1ccc2cc(NC(=O)Nc3cccnc3)ccc21` [Compound 7, SB-200646A], the “pKi (5-HT2B)” value at 5-HT2B [1] is 7.5.
For the molecule `Cc1cccc2[nH]c(C3CCN(C(=O)c4cnn[nH]4)CC3)nc12` [Compound 11], the inhibition at 10 µM turned out to be 12 ± 4% at human 5-HT1B receptor and 40 ± 3% on human 5-HT2B receptor.
A word on the Ki: it is the dissociation constant of the complex between target and ligand, obtained from inhibition or displacement. Read a high Ki as weaker binding. Turning to `Cc1c(-c2ccccc2)sc(NC(=O)Cn2c(=O)cnc3ccccc32)c1C(=O)N1CCCCC1` [Compound 9], the Ki at human 5-HT1B receptor is 2100 ± 622 nM; at human serotonin 5-HT1AR, above 20 µM; in assay [2], above 20 µM; in assay [3], 7.5 ± 0.9 µM; in assay [4] it was above 20 µM; at human 5-HT2B receptor, 235 ± 15.9 nM. In addition, the “5-HT2BR affinity range in words” value at human 5-HT2B receptor is listed as “submicromolar”.
As a reminder, the Kd is a measure of binding affinity in units of concentration. Regarding `COc1ccc(NC(=O)c2ccc(-c3ccncc3)c(C)c2)cc1N1CCN(C)CC1` [[^3H]-GR125743, reference compound], the Kd on human 5-HT1B receptor (radioligand used at […], read-out: KD of radioligand at 5-HT1BR) worked out at 0.74 nM.
As to `Cc1ncc(C(=O)N2CCC(c3nccn3Cc3ccccc3)CC2)c(=O)[nH]1` [Compound 13], the inhibition at 10 µM at human 5-HT1B receptor was 19 ± 3%; on human 5-HT2B receptor, 34 ± 4%.
As for `Cn1c(CN2CCCCC2)nnc1C1CCCN(CCc2ccccc2)C1` (centres unmarked) [Compound 10], the inhibition at 10 µM at human 5-HT1B receptor is 7 ± 4%. In addition, on human 5-HT2B receptor, the Ki was 2610 ± 422 nM and the “5-HT2BR affinity range in words” value is listed as “low micromolar”.
Regarding `Cc1cc([N+](=O)[O-])c(N2CCN(Cc3ccccc3)CC2)cc1N` [Compound 5, EGIS-7625], the “pKi (5-HT2B)” value at 5-HT2B [1] is given as 9.0.
`Cc1c(C(=O)N2CCC(c3ncc[nH]3)CC2)n[nH]c1-c1ccc(Cl)cc1` [Compound 8]: the Ki on human 5-HT1B receptor was 2930 ± 321 nM; on human serotonin 5-HT1AR, above 20 µM; in [2], above 20 µM; in assay [3], 13.2 ± 1.5 µM; in assay [4] it was above 20 µM; on human 5-HT2B receptor, 0.3 ± 0.07 nM. Further, the “5-HT2BR affinity range in words” value at human 5-HT2B receptor is “subnanomolar”. In addition, the “selectivity for 5-HT2BR versus 5-HT1BR” value at human 5-HT2B receptor (ratio of 5-HT1BR and 5-HT2BR affinity) is “ten thousand-fold”.
`COc1ccc2c(c1)NC1(CCN(C(=O)c3ccc(C)c(C)c3)CC1)c1cccn1-2` [Compound 15]: the inhibition at 10 µM is 28 ± 3% at human 5-HT1B receptor and 31 ± 4% at human 5-HT2B receptor.
What is called IC50 is the point on the concentration scale where inhibition reaches its midpoint. As for `O=C(c1ccc(-c2ccccc2)cc1)N1CCC(c2nc3ccccc3[nH]2)CC1` [Compound 17], in the assay with 5-HT2B [5] (Figure 6, closest literature analogue, read-out: IC50 (5-HT2BR)), the IC50 was 2.4 nM.
For the molecule `CC(C)c1cc(-c2ccc(F)c3ccccc23)nc(N)n1` [Compound 4, RS-127445], the half-maximal inhibitory concentration (IC50) in the assay with 5-HT2B [5] (Figure 1, read-out: IC50 (5-HT2B)) is 0.7 nM.
As to `COc1ccc(CC2NCCc3c2[nH]c2ccccc32)cc1OC` (centres unmarked) [Compound 6, LY-23728], the “pKB (5-HT2B)” value with 5-HT2B [6] is reported as 9.17.
With `CCOC(=O)c1c(CN2CCCCC2)n(C)c2c1cc(OC(C)=O)c1c2c(-c2ccccc2)nn1-c1ccccc1` [Compound 14], the inhibition at 10 µM on human 5-HT1B receptor amounted to 26 ± 4%; on human 5-HT2B receptor it was 34 ± 4%.
